Experimental data reported in EP4737454A1, “GLP-1 RECEPTOR AGONIST, AND PREPARATION METHOD THEREFOR AND USE THEREOF” (Wayne Biotechnology Co., Ltd., priority 2023, dated 2025).

Biological target: Human GLP-1R (Homo sapiens, UniProt P43220)
Experiment: cAMP level determination in human GLP-1R stably transfected HEK293T cells (HTRF cAMP kit)
Format: cell-based
Settings: 37°C 30 min
Experimental: Human GLP-1R HEK293T stably transfected cells were digested with trypsin, terminated with DMEM total (without p/s), centrifuged and washed twice with 1X Stimulation buffer, then resuspended in 1X stimulation buffer and counted. The cells were then prepared as a 1 Million/mL cell suspension in stimulation buffer. Compound powder was first prepared as a 10 mM stock solution in DMSO, then diluted to 2 mM with DMSO, and further prepared as 2X compound in 1X stimulation buffer (Cisbio kit buffer with freshly added IBMX at a final concentration of 0.5 mM). The top dose final concentration was 2000 nM, with a final DMSO concentration of 0.2%, diluted in a 1:3 gradient for 11 gradients.
According to the layout, 5 µl of compound was added to each well; Min wells contained 100 nM GLP-1, and Max wells contained 0.2% DMSO in 1X stimulation buffer. 5 µl of cell suspension was added to each well, centrifuged at 300 rpm at room temperature for 1 min, then incubated at 37°C for 30 min. 2X cAMP standards were prepared in 1X Stimulation buffer, with a top final concentration of 2.8 µM, diluted in a 1:3 gradient for 12 doses. According to the layout, 10 µl was added to each well. Finally, d2 and antibody were diluted 20-fold in 1X Detection buffer (Cisbio kit buffer), and 5 µl of each was added to each well according to the layout. After centrifugation at 300 rpm at room temperature for 1 min, the plate was incubated at room temperature for 2 hr.
Stimulation% was calculated based on Min and Max readings (665nm/615nm ratio) using the formula: 100*(ratio Max well - ratio test well)/(ratio Max well - ratio Min well). The cAMP concentration in each test well was derived from the cAMP standard curve, and the data was analyzed using GraphPad Prism 9 to plot four-parameter fit curves and calculate EC50 values using the formula: Y=Bottom + (Top-Bottom)/(1+10^((LogEC50-X)*HillSlope)). Table 1: cAMP Level Determination in Human GLP-1R Stably Transfected HEK293T Cells

Sequence of Human GLP-1R (P43220 24-463): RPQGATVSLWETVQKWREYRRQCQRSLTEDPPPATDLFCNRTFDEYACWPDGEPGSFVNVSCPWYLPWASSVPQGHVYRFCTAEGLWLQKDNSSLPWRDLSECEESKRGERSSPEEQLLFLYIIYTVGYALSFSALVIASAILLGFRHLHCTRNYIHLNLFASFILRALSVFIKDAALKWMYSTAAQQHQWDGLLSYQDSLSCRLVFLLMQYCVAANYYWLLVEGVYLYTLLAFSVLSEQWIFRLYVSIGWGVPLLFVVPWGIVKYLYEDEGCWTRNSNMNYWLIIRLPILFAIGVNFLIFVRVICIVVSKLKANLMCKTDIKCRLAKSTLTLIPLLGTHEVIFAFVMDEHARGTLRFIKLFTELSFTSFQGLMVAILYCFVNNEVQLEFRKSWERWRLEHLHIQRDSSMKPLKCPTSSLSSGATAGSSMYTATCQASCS

Row | SMILES | EC50
1 | Cc1cc(-n2nc3c(c2-n2ccn(-c4ccc(N(C)C(=O)C5CC5)c(Cl)c4)c2=O)[C@H](C)N(C(=O)c2cc4cc([C@H]5CCOC(C)(C)C5)ccc4n2[C@@]2(c4noc(=O)[nH]4)C[C@@H]2C)CC3)cc(C)c1F [Compound 70] | 3.55 nM
2 | Cc1cc(-n2nc3c(c2-n2ccn(-c4ccc(N(C)C(=O)C5CC5)c(C(F)(F)F)c4)c2=O)[C@H](C)N(C(=O)c2cc4cc([C@H]5CCOC(C)(C)C5)ccc4n2[C@@]2(c4nc(=O)o[nH]4)C[C@@H]2C)CC3)cc(C)c1F [Compound 74] | 3.25 nM
3 | Cc1cc(-n2nc3c(c2-n2ccn(-c4ccc(C(=O)NC5CC5)cc4)c2=O)[C@H](C)N(C(=O)c2cc4cc(C5CCOC(C)(C)C5)ccc4n2[C@@]2(c4nc(=O)o[nH]4)C[C@@H]2C)CC3)cc(C)c1F (stereo partly shown) [Compound 46] | 77.9 nM
4 | Cc1cc(-n2nc3c(c2-n2ccn(-c4ccc(OC(F)(F)F)c(C#N)c4)c2=O)[C@H](C)N(C(=O)c2cc4cc(C5CCOC(C)(C)C5)ccc4n2[C@@]2(c4nc(=O)o[nH]4)C[C@@H]2C)CC3)cc(C)c1F (stereo partly shown) [Compound 94] | 21.6 nM
5 | Cc1cc(-n2nc3c(c2-n2ccn(-c4ccc(C(=O)N(C)C5CC5)c(C(F)(F)F)c4F)c2=O)[C@H](C)N(C(=O)c2cc4cc([C@H]5CCOC(C)(C)C5)ccc4n2[C@@]2(c4nc(=O)o[nH]4)C[C@@H]2C)CC3)cc(C)c1F [Compound 14] | 5.61 nM
6 | Cc1cc(-n2nc3c(c2-n2ccn(-c4ccc(C#N)c(C)c4F)c2=O)[C@H](C)N(C(=O)c2cc4cc(C5CCOC(C)(C)C5)ccc4n2[C@@]2(c4nc(=O)o[nH]4)C[C@@H]2C)CC3)cc(C)c1F (stereo partly shown) [Compound 96] | 7.37 nM
7 | Cc1cc(-n2nc3c(c2-n2ccn(-c4ccc(N(C)C5CC5)c(C(F)(F)F)c4)c2=O)[C@H](C)N(C(=O)c2cc4cc(C5CCOC(C)(C)C5)ccc4n2[C@@]2(c4nc(=O)o[nH]4)C[C@@H]2C)CC3)cc(C)c1F (stereo partly shown) [Compound 64] | 29 nM
8 | Cc1cc(-n2nc3c(c2-n2ccn(-c4ccc5c(c4)S(=O)(=O)CCC5)c2=O)[C@H](C)N(C(=O)c2cc4cc(C5CCOC(C)(C)C5)ccc4n2[C@@]2(c4nc(=O)o[nH]4)C[C@@H]2C)CC3)cc(C)c1F (stereo partly shown) [Compound 59] | 15 nM
9 | Cc1cc(-n2nc3c(c2-n2ccn(-c4ccc(C(=O)N(C)C5CC5)c(OCC5CC5)c4)c2=O)[C@H](C)N(C(=O)c2cc4cc(C5CCOC(C)(C)C5)ccc4n2[C@@]2(c4nc(=O)o[nH]4)C[C@@H]2C)CC3)cc(C)c1F (stereo partly shown) [Compound 43] | 13.2 nM
10 | Cc1cc(-n2nc3c(c2-n2ccn(-c4ccc(C#N)c(OC(F)(F)F)c4)c2=O)[C@H](C)N(C(=O)c2cc4cc(C5CCOC(C)(C)C5)ccc4n2[C@@]2(c4nc(=O)o[nH]4)C[C@@H]2C)CC3)cc(C)c1F (stereo partly shown) [Compound 78] | 20.3 nM
11 | Cc1cc(-n2nc3c(c2-n2ccn(-c4cnc(C(=O)N(C)C5CC5)nc4)c2=O)[C@H](C)N(C(=O)c2cc4cc(C5CCOC(C)(C)C5)ccc4n2[C@@]2(c4nc(=O)o[nH]4)C[C@@H]2C)CC3)cc(C)c1F (stereo partly shown) [Compound 32] | 79.7 nM
12 | C[C@H]1c2c(nn(-c3ccc(F)c(C4CC4(F)F)c3)c2-n2ccn(-c3ccc4c(cnn4C)c3F)c2=O)CCN1C(=O)c1cc2cc(C3CCOC(C)(C)C3)ccc2n1[C@@]1(c2nc(=O)o[nH]2)C[C@@H]1C (stereo partly shown) [Compound 2] | 56.5 nM
13 | Cc1cc(-n2nc3c(c2-n2ccn(-c4ccc(C(=O)N(C)C5CC5)c(C(F)(F)F)c4)c2=O)[C@H](C)N(C(=O)c2cc4cc([C@H]5CCOC(C)(C)C5)ccc4n2[C@@]2(c4nc(=O)o[nH]4)C[C@@H]2C)CC3)cc(C)c1F [Compound 6] | 5.16 nM
14 | Cc1cc(-n2nc3c(c2-n2ccn(-c4cccc(C(=O)NC5CC5)c4)c2=O)[C@H](C)N(C(=O)c2cc4cc(C5CCOC(C)(C)C5)ccc4n2[C@@]2(c4nc(=O)o[nH]4)C[C@@H]2C)CC3)cc(C)c1F (stereo partly shown) [Compound 47] | 65.1 nM
15 | Cc1cc(-n2nc3c(c2-n2ccn(-c4ccc(C(=O)N(C)C5CC5)c(OC(F)(F)F)c4)c2=O)[C@H](C)N(C(=O)c2cc4cc([C@H]5CCOC(C)(C)C5)ccc4n2[C@@]2(c4nc(=O)o[nH]4)C[C@@H]2C)CC3)cc(C)c1F [Compound 12] | 9.58 nM
16 | Cc1cc(-n2nc3c(c2-n2ccn(-c4ccc(C(F)(F)F)c(C#N)c4)c2=O)[C@H](C)N(C(=O)c2cc4cc(C5CCOC(C)(C)C5)ccc4n2[C@@]2(c4nc(=O)o[nH]4)C[C@@H]2C)CC3)cc(C)c1F (stereo partly shown) [Compound 84] | 9.87 nM
17 | Cc1cc(-n2nc3c(c2-n2ccn(-c4cccc(C(=O)N(C)C5CC5)c4)c2=O)[C@H](C)N(C(=O)c2cc4cc(C5CCOC(C)(C)C5)ccc4n2[C@@]2(c4nc(=O)o[nH]4)C[C@@H]2C)CC3)cc(C)c1F (stereo partly shown) [Compound 45] | 41 nM

Row | SMILES | EC50
18 | Cc1cc(-n2nc3c(c2-n2ccn(-c4ccc(C#N)cc4)c2=O)[C@H](C)N(C(=O)c2cc4cc(C5CCOC(C)(C)C5)ccc4n2[C@@]2(c4nc(=O)o[nH]4)C[C@@H]2C)CC3)cc(C)c1F (stereo partly shown) [Compound 90] | 15.1 nM
19 | Cc1cc(-n2nc3c(c2-n2ccn(-c4ccc(C#N)c(F)c4)c2=O)[C@H](C)N(C(=O)c2cc4cc([C@H]5CCOC(C)(C)C5)ccc4n2[C@@]2(c4nc(=O)o[nH]4)C[C@@H]2C)CC3)cc(C)c1F [Compound 82b] | 6.4 nM
20 | Cc1cc(-n2nc3c(c2-n2ccn(-c4ccc(N(C)C(=O)C5CC5)cc4Cl)c2=O)[C@H](C)N(C(=O)c2cc4cc([C@H]5CCOC(C)(C)C5)ccc4n2[C@@]2(c4nc(=O)o[nH]4)C[C@@H]2C)CC3)cc(C)c1F [Compound 77] | 6.19 nM
21 | Cc1cc(-n2nc3c(c2-n2ccn(-c4cc(F)c(C(=O)N(C)C5CC5)c(F)c4)c2=O)[C@H](C)N(C(=O)c2cc4cc(C5CCOC(C)(C)C5)ccc4n2[C@@]2(c4nc(=O)o[nH]4)C[C@@H]2C)CC3)cc(C)c1F (stereo partly shown) [Compound 52] | 11 nM
22 | Cc1cc(-n2nc3c(c2-n2ccn(-c4ccc5c(c4)C=CS5(=O)=O)c2=O)[C@H](C)N(C(=O)c2cc4cc(C5CCOC(C)(C)C5)ccc4n2[C@@]2(c4noc(=O)[nH]4)C[C@@H]2C)CC3)cc(C)c1F (stereo partly shown) [Compound 62] | 13.5 nM
23 | Cc1cc(-n2nc3c(c2-n2ccn(-c4ccc(C(=O)N(C)C5(C)CC5)c(F)c4)c2=O)[C@H](C)N(C(=O)c2cc4cc(C5CCOC(C)(C)C5)ccc4n2[C@@]2(c4nc(=O)o[nH]4)C[C@@H]2C)CC3)cc(C)c1F (stereo partly shown) [Compound 51] | 8.76 nM
24 | Cc1cc(-n2nc3c(c2-n2ccn(-c4cc(F)c(C(=O)N(C)C5CC5)c(Cl)c4F)c2=O)[C@H](C)N(C(=O)c2cc4cc(C5CCOC(C)(C)C5)ccc4n2[C@@]2(c4nc(=O)o[nH]4)C[C@@H]2C)CC3)cc(C)c1F (stereo partly shown) [Compound 19] | 16.2 nM
25 | Cc1cc(-n2nc3c(c2-n2ccn(-c4ccc5c(c4)C=CS5(=O)=O)c2=O)[C@H](C)N(C(=O)c2cc4cc([C@H]5CCOC(C)(C)C5)ccc4n2[C@@]2(c4noc(=O)[nH]4)C[C@@H]2C)CC3)cc(C)c1F [Compound 62b] | 4.53 nM
26 | Cc1cc(-n2nc3c(c2-n2ccn(-c4ccc(C#N)c(Cl)c4F)c2=O)[C@H](C)N(C(=O)c2cc4cc(C5CCOC(C)(C)C5)ccc4n2[C@@]2(c4nc(=O)o[nH]4)C[C@@H]2C)CC3)cc(C)c1F (stereo partly shown) [Compound 97] | 7.84 nM
27 | C[C@H]1c2c(nn(-c3ccc(F)c(C4CC4)c3)c2-n2ccn(-c3ccc4c(cnn4C)c3F)c2=O)CCN1C(=O)c1cc2cc([C@H]3CCOC(C)(C)C3)ccc2n1[C@@]1(c2nc(=O)o[nH]2)C[C@@H]1C [Compound 1b] | 17.5 nM
28 | Cc1cc(-n2nc3c(c2-n2ccn(-c4ccccc4C(=O)N(C)C4CC4)c2=O)[C@H](C)N(C(=O)c2cc4cc(C5CCOC(C)(C)C5)ccc4n2[C@@]2(c4nc(=O)o[nH]4)C[C@@H]2C)CC3)cc(C)c1F (stereo partly shown) [Compound 39] | 11.3 nM
29 | Cc1cc(-n2nc3c(c2-n2ccn(-c4cc(F)c(C(=O)N(C)C5CC5)cc4F)c2=O)C(C)N(C(=O)c2cc4cc(C5CCOC(C)(C)C5)ccc4n2C2(c4nc(=O)o[nH]4)CC2C)CC3)cc(C)c1F (stereo not shown) [Compound 26] | 11.5 nM
30 | Cc1cc(-n2nc3c(c2-n2ccn(-c4ccc(N(C)C(=O)C5CC5)c(F)c4)c2=O)[C@H](C)N(C(=O)c2cc4cc([C@@H]5CCOC(C)(C)C5)ccc4n2[C@@]2(c4noc(=O)[nH]4)C[C@@H]2C)CC3)cc(C)c1F [Compound 63a] | 146 nM
31 | Cc1cc(-n2nc3c(c2-n2ccn(-c4ccc(N(C)C5CC5)c(F)c4)c2=O)[C@H](C)N(C(=O)c2cc4cc(C5CCOC(C)(C)C5)ccc4n2[C@@]2(c4noc(=O)[nH]4)C[C@@H]2C)CC3)cc(C)c1F (stereo partly shown) [Compound 68] | 18 nM
32 | Cc1cc(-n2nc3c(c2-n2ccn(-c4ccc(C#N)nc4)c2=O)[C@H](C)N(C(=O)c2cc4cc(C5CCOC(C)(C)C5)ccc4n2[C@@]2(c4nc(=O)o[nH]4)C[C@@H]2C)CC3)cc(C)c1F (stereo partly shown) [Compound 91] | 38.4 nM
33 | Cc1cc(-n2nc3c(c2-n2ccn(-c4ccc(C(=O)N(C)C5CC5)c(OC(F)F)c4)c2=O)[C@H](C)N(C(=O)c2cc4cc(C5CCOC(C)(C)C5)ccc4n2[C@@]2(c4nc(=O)o[nH]4)C[C@@H]2C)CC3)cc(C)c1F (stereo partly shown) [Compound 31] | 15.1 nM
34 | Cc1cc(-n2nc3c(c2-n2ccn(-c4ccc(C#N)cn4)c2=O)[C@H](C)N(C(=O)c2cc4cc(C5CCOC(C)(C)C5)ccc4n2[C@@]2(c4nc(=O)o[nH]4)C[C@@H]2C)CC3)cc(C)c1F (stereo partly shown) [Compound 85] | 50.2 nM
